Data taken from US20260191825A1, “CONTRACEPTIVE COMPOUNDS AND DOSING FOR THE SAME” (YourChoice Therapeutics, Inc., priority 2024, published 2026).
Values joined by “and” are separate entries in the source; they are usually repeats but may differ in a detail not shown here. Equal entries are not always repeated. “Also recorded” adds a separate entry of the source.

Tests used:
[1] = Dog 28-day repeat-dose GLP toxicity study; type: in vivo; details: male, Beagle, in vivo; for NOAEL at 28 days: dog
male Beagle dogs = assay: Dog 28-day repeat-dose GLP toxicity study; type: in vivo
respiratory system = assay: Rat respiratory safety pharmacology study; type: in vivo; details: male Sprague Dawley rats, single oral doses of 3, 10 or 30 mg/kg
[2] = Rat single dose GLP study (toxicity, sperm parameters); type: in vivo; details: male, in vivo; rat, single dose; highest dose tested
Description: (§1) No efficacy was observed after single dose studies in the rat.

male rats = assay: as above; type: in vivo
Description: as §1

[3] = Rat GLP single dose study, PK at the NOAEL; details: male, in vivo, 1000 mg/kg, single dose 1,000 mg/kg (NOAEL)
mice [4] = assay: Repeat dose study in mice (sperm counts); type: in vivo, mouse
rats = assay: Rat repeat dose non-GLP efficacy study (sperm counts, MABEL); type: in vivo
Description: Rat testicular toxicity reversibility characteristics and findings after repeat dosing are discussed in Section 3.1.4.
Rat 35-day repeat dose non-GLP study with a MABEL of 0.75 mg/kg/day.

[5] = In vitro stability in liver microsomes (human); type: in vitro ADME
Description: (§2) Respective half-lives (T1/2) were 9.5 hours (human), 23.1 hours (monkeys), >23.1 hours (mice), >23.1 hours (rats), 19.6 hours (rabbits), and >23.1 hours (dogs).

[6] = In vitro stability in microsomes (mouse); type: in vitro ADME; details: mice, read-out: Half-life (T1/2) in microsomes
Description: as §2

[7] = In vitro stability in microsomes (dog); type: in vitro ADME; details: dogs
Description: as §2

CYP1A2 = CYP1A2 (Homo sapiens, UniProt P05177); assay: In vitro CYP inhibition (direct and time-dependent), CYP1A2; type: in vitro ADME
Sequence of CYP1A2 (P05177 whole entry): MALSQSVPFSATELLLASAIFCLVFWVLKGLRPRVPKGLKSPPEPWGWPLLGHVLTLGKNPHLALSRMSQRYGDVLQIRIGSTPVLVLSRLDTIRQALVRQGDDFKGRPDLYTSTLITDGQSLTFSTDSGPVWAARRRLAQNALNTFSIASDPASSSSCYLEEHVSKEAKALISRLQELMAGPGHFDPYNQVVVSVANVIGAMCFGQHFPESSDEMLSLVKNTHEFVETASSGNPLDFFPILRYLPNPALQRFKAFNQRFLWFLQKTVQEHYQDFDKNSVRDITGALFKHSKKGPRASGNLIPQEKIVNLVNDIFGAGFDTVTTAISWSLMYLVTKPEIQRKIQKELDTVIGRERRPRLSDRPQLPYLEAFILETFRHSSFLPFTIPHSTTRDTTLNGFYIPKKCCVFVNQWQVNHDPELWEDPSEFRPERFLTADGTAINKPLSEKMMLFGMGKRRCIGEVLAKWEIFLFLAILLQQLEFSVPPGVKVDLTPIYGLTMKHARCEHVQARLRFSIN
Description: (§3) However, the likelihood of drug interactions is low since healthy participants who meet eligibility criteria will be enrolled in this Phase 1b/2a clinical trial. An allowance for select concomitant medications may be considered for select participants at the discretion of the investigator and/or sponsor if drug profiles are not anticipated to interact with Compound A. Such medications may include, but will not be limited to paracetamol or ibuprofen as assessed by both the PI and the Sponsor. […] Additional precautions to avoid grapefruit, pomegranates, star fruit, or Seville oranges for 7 days prior to admission, and juices and products containing these fruits for the duration of the study will be taken.

CYP2C8 = CYP2C8 (Homo sapiens, UniProt P10632); assay: In vitro CYP inhibition (direct and time-dependent), CYP2C8; type: in vitro ADME
Sequence of CYP2C8 (P10632 whole entry): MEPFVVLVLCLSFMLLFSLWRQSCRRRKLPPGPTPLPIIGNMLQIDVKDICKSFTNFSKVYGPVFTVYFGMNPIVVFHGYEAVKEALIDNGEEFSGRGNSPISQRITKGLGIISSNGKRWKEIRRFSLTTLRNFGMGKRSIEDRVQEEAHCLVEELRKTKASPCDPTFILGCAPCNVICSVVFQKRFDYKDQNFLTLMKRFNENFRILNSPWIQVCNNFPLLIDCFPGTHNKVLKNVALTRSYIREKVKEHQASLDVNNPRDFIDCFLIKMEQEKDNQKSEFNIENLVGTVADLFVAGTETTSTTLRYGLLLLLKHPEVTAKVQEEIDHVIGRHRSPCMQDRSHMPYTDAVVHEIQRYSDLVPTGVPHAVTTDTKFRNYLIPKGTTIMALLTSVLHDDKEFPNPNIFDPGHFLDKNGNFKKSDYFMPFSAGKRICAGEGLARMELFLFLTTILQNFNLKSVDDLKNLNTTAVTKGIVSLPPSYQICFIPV
Description: as §3

CYP2C9 = CYP2C9 (Homo sapiens, UniProt P11712); assay: In vitro CYP inhibition (direct and time-dependent), CYP2C9; type: in vitro ADME
Sequence of CYP2C9 (P11712 whole entry): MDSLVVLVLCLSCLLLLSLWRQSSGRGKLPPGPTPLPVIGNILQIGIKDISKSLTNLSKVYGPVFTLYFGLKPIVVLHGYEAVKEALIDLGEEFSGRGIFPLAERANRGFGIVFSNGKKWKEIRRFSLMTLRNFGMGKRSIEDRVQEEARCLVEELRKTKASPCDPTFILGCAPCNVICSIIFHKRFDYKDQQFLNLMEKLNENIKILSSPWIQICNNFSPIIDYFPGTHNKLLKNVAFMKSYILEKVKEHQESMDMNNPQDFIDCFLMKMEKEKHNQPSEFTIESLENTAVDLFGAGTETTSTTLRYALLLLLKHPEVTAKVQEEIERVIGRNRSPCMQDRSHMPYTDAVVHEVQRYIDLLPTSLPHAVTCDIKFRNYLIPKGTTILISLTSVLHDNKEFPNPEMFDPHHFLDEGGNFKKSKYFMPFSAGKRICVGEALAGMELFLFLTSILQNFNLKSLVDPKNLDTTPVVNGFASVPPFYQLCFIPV
Description: as §3

CYP2C19 = CYP2C19 (Homo sapiens, UniProt P33261); assay: In vitro CYP inhibition (direct and time-dependent), CYP2C19; type: in vitro ADME
Sequence of CYP2C19 (P33261 whole entry): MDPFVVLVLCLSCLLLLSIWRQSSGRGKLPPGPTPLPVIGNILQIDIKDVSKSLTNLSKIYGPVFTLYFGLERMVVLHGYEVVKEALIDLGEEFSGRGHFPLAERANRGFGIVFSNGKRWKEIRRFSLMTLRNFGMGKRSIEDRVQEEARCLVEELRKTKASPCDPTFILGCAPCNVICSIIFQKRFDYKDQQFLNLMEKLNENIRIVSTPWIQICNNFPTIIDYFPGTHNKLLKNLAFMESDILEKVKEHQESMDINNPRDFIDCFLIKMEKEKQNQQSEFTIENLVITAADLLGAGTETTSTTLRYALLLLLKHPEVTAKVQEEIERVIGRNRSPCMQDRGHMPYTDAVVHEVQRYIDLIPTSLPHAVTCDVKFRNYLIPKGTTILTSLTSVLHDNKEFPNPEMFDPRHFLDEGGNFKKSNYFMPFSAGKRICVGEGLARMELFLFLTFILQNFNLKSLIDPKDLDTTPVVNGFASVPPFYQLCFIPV
Description: as §3

[8] = Phase 1b MAD study (Part 1), 28-day dosing, PK; type: in vivo, human; details: for Cmax / AUC0-24 / AUC(0-t) / AUC(0-inf) / half-life: mean; for Tmax: median;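 on all read-outs here: PK profiles sampled across 24 h on Day 1 and Day 28 while participants stayed overnight in the clinical research unit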
Description: • Part 1: Participants will have overnight stays in the clinical research unit in order to monitor their wellbeing and obtain 24-hour PK profiles on Day 1 and Day 28.

rat = assay: Rat repeat daily dosing at non-tolerated doses; type: in vivo
Description: These doses convert to respective Human Equivalent Doses (HEDs) of ≥1,612.8 mg and ≥444.8 mg fixed dose based on 80 kg body weight. […] Safety laboratory analyses include serum chemistry, hematology, coagulation, and lipid panel.

mice [9] = assay: Mating trials with mice; type: in vivo, mouse; details: 10 mg/kg/day for 4 weeks
[10] = male, human, in vivo, oral, 30 mg, […] mg once daily, Day 28
[11] = male, human, in vivo, oral, 15 mg once daily, Day 28

Cc1ccc(C2=CC(C)(C)Oc3ccc(-c4ccc(-c5ccc(C(=O)O)cc5)[nH]4)cc32)cc1 [Compound A]
Human equivalent dose of NOAEL at 28 days ([1]; dog 28-day GLP, NOAEL 5 mg/kg/day, read-out: HED of NOAEL): 2.8 mg/kg/day | NOAEL at 28 days ([1]; 28-day repeat dose GLP, 2.5-25 mg/kg/day): 5 mg/kg/day | NOAEL at 28 days ([1]; 28-day repeat-dose): 5 mg/kg | HED (based on BSA) of MABEL (male Beagle dogs; dog): 1.4 mg/kg | HED for 60 kg BW of MABEL (male Beagle dogs; dog): 84 mg | HED for 80 kg BW of MABEL (male Beagle dogs; dog): 112 mg | HED of not tolerated dose, fixed dose based on 80 kg body weight (male Beagle dogs; dog): ≥ 444.8 mg | Not tolerated repeat daily dose (death and morbidity) (male Beagle dogs; dog): ≥ 10 mg/kg/day | Doses with intended testicular toxicity confirmed by histopathology (male Beagle dogs; dog, 28-day dosing): ≥ 2.5 mg/kg/day | MABEL (male Beagle dogs; dog, 28-day repeat dose GLP): 2.5 mg/kg/day | Reversibility of spermatogenesis (male Beagle dogs; dog, 62-day recovery period): reversible | Recovery of spermatogenesis (male Beagle dogs; dog, after 28-day dosing): 1 spermatogenic cycle | Cross-section of canine testicle after dosing (FIG. 1B) (male Beagle dogs; dog, after dosing): no developing and mature sperm | Cross-section of canine testicle after recovery period of no dosing (FIG. 1C) (male Beagle dogs; dog, after recovery period): return of developing sperm | Cause of death or moribundity (male Beagle dogs; dogs, 10 or 25 mg/kg/day): renal toxicity | NOAEL increase over the minimum efficacious dose in rats (male Beagle dogs; male, Beagle, dog, in vivo, 28 days): 22 fold | HED for 60 kg BW (male Beagle dogs; of dog repeat-dose NOAEL): 168 mg | HED for 80 kg BW (male Beagle dogs; of dog repeat-dose NOAEL): 224 mg | Main outcomes: rat respiratory (adverse effects on respiratory system) (respiratory system): no adverse effects; also recorded: Clean | NOAEL at 15 days [2]: 1000 mg/kg | Tolerated single dose (highest dose tested) (male rats; male rats, GLP study): 1,000 mg/kg | Human dose 60 kg, safety factor 10 (male rats; male, rat, in vivo, 15 days): 967.74 mg | HED (male rats; rat, single dose 1,000 mg/kg): 161.3 mg/kg and 161.29 mg/kg | Impact on sperm parameters after single dose (male rats; rats, single doses as high as 1,000 mg/kg, Day 15 post dose): no impact on sperm parameters | AUC(0-t) ([3]; Day 1, mean, read-out: AUC0-24): 560000 ng·h/mL | Tmax ([3]; Day 1, median): 48 h | half-life ([3]; Day 1, median, calculated from only 2 animals): 16.9 h | Cmax ([3]; Day 1, n = 20, mean): 45100 ng/mL | Reversibility of antispermatogenic effect (mice [4]; mice): ≤ 1 spermatogenic cycle | Lowest dose with decreases in sperm counts (mice [4]; mouse, repeat dose for 4 weeks): 2.5 mg/kg/day | HED (based on BSA) of MABEL (rats; rat): 0.1 mg/kg | HED for 60 kg BW of MABEL (rats; rat): 7.2 mg | HED for 80 kg BW of MABEL (rats; rat): 9.6 mg | MABEL (rats; rat, 35-day repeat dose non-GLP): 0.75 mg/kg/day | Lowest dose with decreases in sperm counts / minimum efficacious dose in rats (rats; rat, repeat dose for 36 days): 0.75 mg/kg/day | Recovery from disruption of spermatogenesis (rats; rats, 28-day dosing at 0.75 mg/kg/day and 1 mg/kg/day): recover from disruption of spermatogenesis | Half-life (T1/2) in microsomes [5]: 9.5 h | half-life [6]: > 23.1 h | half-life ([7]; dog, read-out: Half-life (T1/2) in microsomes): > 23.1 h | Compound remaining intact ([7]; 90 minutes): 101% | IC50 (CYP1A2; CYP1A2): 30.1 µM | Time-dependent inhibition (TDI) (CYP1A2; CYP1A2, 0.3 to 100 μM): no TDI potential | IC50 (CYP2C8; CYP2C8): 8.37 µM | Time-dependent inhibition (TDI) (CYP2C8; CYP2C8, 0.3 to 100 μM): no TDI potential | IC50 (CYP2C9; CYP2C9): 14.6 µM | Time-dependent inhibition (TDI) (CYP2C9; CYP2C9, 0.3 to 100 μM): no TDI potential | IC50 (CYP2C19; CYP2C19): 85.1 µM | Time-dependent inhibition (TDI) (CYP2C19; CYP2C19, 0.3 to 100 μM): no TDI potential | Cmax ([8]; 15 mg once daily, Day 1): 247.8 ng/mL | AUC0-24 ([8]; 15 mg once daily, Day 28): 6,414 h*ng/mL | AUC0-24 ([8]; 90 mg once daily, Day 1): 14,091/ h*ng/mL | Cmax ([8]; 90 mg once daily, Day 1): 794.3 ng⁻¹ mL⁻¹ | AUC0-24 ([8]; 90 mg once daily, Day 28): 22,710/ h*ng/mL | Cmax ([8]; 90 mg once daily, Day 28): 1,165/ ng/mL | AUC0-24 ([8]; […] mg once daily, Day 1): 10,060/ h*ng/mL | Cmax ([8]; […] mg once daily, Day 1): 544.5 ng⁻¹ mL⁻¹ | AUC0-24 ([8]; […] mg once daily, Day 28): 9,585/ h*ng/mL | Cmax ([8]; […] mg once daily, Day 28): 551.5 ng⁻¹ mL⁻¹ | AUC(0-t) ([8]; male, human, in vivo, oral, 15 mg, 15 mg once daily, Day 1, read-out: AUC0-24): 4850 ng·h/mL | AUC(0-t) ([8]; male, human, in vivo, oral, 15 mg, 15 mg once daily, Day 1, read-out: AUC0-last): 4850 ng·h/mL | Cmax ([8]; male, human, in vivo, oral, 15 mg, 15 mg once daily, Day 1, read-out: Cmax): 275 ng/mL | AUC(0-t) ([8]; male, human, in vivo, oral, 15 mg, 15 mg once daily, Day 28, read-out: AUC0-24): 6420 ng·h/mL | AUC(0-t) ([8]; male, human, in vivo, oral, 15 mg, 15 mg once daily, Day 28, read-out: AUC0-last): 24700 ng·h/mL | Cmax ([8]; male, human, in vivo, oral, 15 mg, 15 mg once daily, Day 28, read-out: Cmax): 348 ng/mL | AUC(0-t) ([8]; male, human, in vivo, oral, 30 mg, 30 mg once daily, Day 1, read-out: AUC0-24): 10100 ng·h/mL | AUC(0-t) ([8]; male, human, in vivo, oral, 30 mg, 30 mg once daily, Day 1, read-out: AUC0-last): 10100 ng·h/mL | Cmax ([8]; male, human, in vivo, oral, 30 mg, 30 mg once daily, Day 1, read-out: Cmax): 544 ng/mL | AUC(0-t) ([8]; male, human, in vivo, oral, 30 mg, 30 mg once daily, Day 28, read-out: AUC0-24): 9580 ng·h/mL | AUC(0-t) ([8]; male, human, in vivo, oral, 30 mg, 30 mg once daily, Day 28, read-out: AUC0-last): 36100 ng·h/mL | Cmax ([8]; male, human, in vivo, oral, 30 mg, 30 mg once daily, Day 28, read-out: Cmax): 552 ng/mL | Tmax ([8]; male, human, in vivo, oral, 30 mg, 30 mg once daily, Day 28): 6 h | AUC(0-inf) [8, 10]: 36400 ng·h/mL | half-life [8, 10]: 28.9 h | AUC(0-t) ([8]; male, human, in vivo, oral, 90 mg, 90 mg once daily, Day 1, read-out: AUC0-24): 14100 ng·h/mL | AUC(0-t) ([8]; male, human, in vivo, oral, 90 mg, 90 mg once daily, Day 1, read-out: AUC0-last): 14100 ng·h/mL | Cmax ([8]; male, human, in vivo, oral, 90 mg, 90 mg once daily, Day 1, read-out: Cmax): 794 ng/mL | Tmax ([8]; male, human, in vivo, oral, 90 mg, 90 mg once daily, Day 1): 6 h | AUC(0-t) ([8]; male, human, in vivo, oral, 90 mg, 90 mg once daily, Day 28, read-out: AUC0-24): 22700 ng·h/mL | Cmax ([8]; male, human, in vivo, oral, 90 mg, 90 mg once daily, Day 28, read-out: Cmax): 1160 ng/mL | AUC(0-inf) [8, 11]: 27500 ng·h/mL | half-life [8, 11]: 35.8 h | HED of not tolerated dose, fixed dose based on 80 kg body weight (rat): ≥ 1,612.8 mg | Not tolerated repeat daily dose (death and morbidity) (rat): ≥ 125 mg/kg/day | Systems affected at non-tolerated doses (rat): hematopoietic, hepatic, adrenal and lymphoid systems were affected | Complete recovery of fertility after cessation of dosing (mice [9]): 6-10 weeks | Infertility (based on the number of viable embryos) (mice [9]): 99%
